Data from patent US10919890B2, “Salts and pharmaceutical compositions thereof for the treatment of inflammatory disorders” (GALAPAGOS NV, priority 2014, dated 2021).
Where a name gives a salt, the structure may show the parent alone.

Key:
[1] = Complementary salt analysis (stability, hygroscopicity); assay type: physicochemical; details: for Hygroscopicity: salt from Protocol 4; for Salt stability: stability evaluation 1 week at 40° C./75% Relative humidity
[2] = Dog bioavailability study; design: species or system beagle dogs; details: in vivo, po, 25 mg/kg
Protocol: The dogs are not fasted before dosing, and have free access to water. Every day of the treatment, a half food ration is provided after the T0 blood sampling, 8 to 17 min before treatment, and the second half ration is given just after dosing or 1 h after treatment for period 2. A 3 days washout period is ensured between treatments. […] The capsule composition is described in Table XX below. The capsules are administered orally with water (5-10 mL), to provide good oesophageal transit. Each animal is checked at least once daily. Blood is collected from the jugular vein into lithium heparinised tubes at T0 (before food administration) and then at 1 […], and 24 h post treatment. Plasma is then obtained from blood by centrifugation (2500 g for 10 min at 4° C.), and stored at -20° C. until analysis. […] After vortex mixing and centrifugation at 4° C., the supernatants are diluted with a 0.5 volume of HPLC grade water in a midi-eppendorf 96-well plate. The plate is sealed and shaken to ensure sample homogeneity prior to analysis. […] Pharmacokinetic analysis is performed using WinNonlinTM software version 5.3, using concentrations from individual animals. Non-compartmental analysis is applied to determine the PK parameters (Cmax, Tmax, AUC0-last, t1/2, etc. . . . ) Concentrations below the limit of detection are set to zero for descriptive statistics and PK parameter calculations.

[3] = Dissolution in solvents (salt Protocol 1); assay type: physicochemical; details: DCM, up to 20 relative volumes, agitated at 50° C.
Text: The solvent is selected from isopropanol, ethanol, methanol, isopropyl acetate, THF, TBME, acetone, methyl ethyl ketone, DCM, and MeCN.

| Hygroscopicity [1] | Salt stability [1] | SMILES | also measured |
| --- | --- | --- | --- |
| non-hygroscopic | – | O=C(O)/C=C\C(=O)O [Compound 1 maleic acid salt] | – |
| non-hygroscopic | stable | Cl.O=C(Nc1nc2cccc(-c3ccc(CN4CCS(=O)(=O)CC4)cc3)n2n1)C1CC1 [Compound 1 HCl salt] | – |
| – | stable | O=C(Nc1nc2cccc(-c3ccc(CN4CCS(=O)(=O)CC4)cc3)n2n1)C1CC1.O=C(O)/C=C\C(=O)O [Compound 1 maleic acid salt] | – |
| – | – | Cl.O.O.O.O=C(Nc1nc2cccc(-c3ccc(CN4CCS(=O)(=O)CC4)cc3)n2n1)C1CC1 [Compound 1.HCl.3H2O] | Tmax [2]: 2.0 h |
| – | – | O=C(Nc1nc2cccc(-c3ccc(CN4CCS(=O)(=O)CC4)cc3)n2n1)C1CC1 [Compound 1, cyclopropane carboxylic acid {5-[4-(1,1-dioxo-thiomorpholin-4-ylmethyl)-phenyl]-[1,2,4]triazolo[1,5-a]pyridin-2-yl}-amide] | Dissolution in solvent [3]: almost full dissolution |
